The values below come from article PMC11013424, “Evaluation of the Lipophilicity of Angularly Condensed Diquino- and Quinonaphthothiazines as Potential Candidates for New Drugs” (Molecules, 2024).

Data set [1] can be described thus: RP-TLC determination of lipophilicity (RM0, logPTLC).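 For all read-outs here: silica gel 60 RP-18 F254S plates, TRIS buffer of ionic strength 0.2 M, detection under UV at 254 nm, RF averaged over three or more runs, C in % v/v.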 The settings on record: for RM0: RP-18 plate, acetone/TRIS buffer pH 7.4, extrapolated to zero acetone; for b (slope) / -b: slope of RM = RM0 + b·C; for b (slope): acetone/TRIS buffer pH 7.4; for -b: standards I–V; for LogPTLC: from RM0 by calibration logPTLC = 1.2838 RM0 + 0.2138.
Protocol: RP-TLC was carried out on a silica gel 60 RP-18 F254S 10 cm × 10 cm RP-TLC plate (Merck, Darmstad, Germany). The mobile phase was acetone and an aqueous TRIS (tris(hydroxymethyl)-aminomethane) buffer pH = 7.4 (ionic strength 0.2 M) to meet physiological conditions. […] Angularly condensed diquino- and quinonaphthothiazinethiazines (1–21) and the standards I–V were dissolved in ethanol (2.0 mg/mL). […] Before developing the plates, the chromatographic chambers were saturated with the mobile phase for 0.5 h. After developing the plates and drying in a stream of air, the chromatograms were observed under UV light at λ = 254 nm. At least, three chromatograms were developed for each soluble–solvent combination, and the RF values were averaged. […] The RM0 values were obtained by extrapolation to a zero acetone concentration using the equation RM = RM0 + bC, where C is the concentration (%, v/v) of acetone in the mobile phase.
On the set-up of data set [2]: method as in doi:10.1016/j.molstruc.2023.136856. The settings on record: cited from earlier work.
Details of data set [3]: method as in doi:10.1016/j.molstruc.2023.136856. The settings on record: cited from earlier work. The source holds these as a separate data set.
On the set-up of data set [4]: method as in doi:10.1016/j.molstruc.2023.136856. As to conditions: cited from earlier work. This is another data set of the same source.
The next data set has as its system alpha-glucosidase. Also on record: method as in doi:10.1016/j.molstruc.2023.136856. The settings on record: cited from earlier work.
For a further data set, the system named is alpha-amylase. Also on record: method as in doi:10.1016/j.molstruc.2023.136856. The settings on record: cited from earlier work.
Details of data set [5]: method as in doi:10.1016/j.molstruc.2023.135700, PMID 30981160, doi:10.1016/j.molstruc.2015.06.046, PMID 25750501, doi:10.1016/j.molstruc.2023.136856. As to conditions: cited from earlier work.
Data set [6] relates to IFNβ expression and IFNβ-dependent downstream genes and proteins. Also noted: method as in doi:10.1016/j.molstruc.2023.135700, PMID 30981160, doi:10.1016/j.molstruc.2015.06.046, PMID 25750501, doi:10.1016/j.molstruc.2023.136856. As to conditions: cited from earlier work.

As for `C#CCN1c2cnc3ccccc3c2Sc2cc3ccccc3nc21` [Compound 4], in data set [1], the RM0 is 3.35 and the “b (slope)” value is given as −0.0383.

For the compound `O=C(O)c1ccccc1` [Standard II, benzoic acid, reference compound], in data set [1], the RM0 is 1.16 and the “-b” value stood at 0.0247.

With `Clc1ccc(C(c2ccc(Cl)cc2)C(Cl)(Cl)Cl)cc1` [Standard V, p,p’-DDT, reference compound], in data set [1], the RM0 was 4.69, the LogPTLC is 6.24 and the “-b” value amounted to 0.0564.

Take `c1ccc2nc3c(cc2c1)Sc1c(ccc2ncccc12)N3` [Compound 5]: in data set [1], the RM0 is on record as 3.72 and the “b (slope)” value was −0.0459.

Turning to `C#CCN1c2nc3ccccc3cc2Sc2ccc3ccccc3c21` [Compound 21], in data set [1], the RM0 is reported as 4.09 and the “b (slope)” value is −0.0507.

Take `C#CCN1c2ccc3ncccc3c2Sc2cc3ccccc3nc21` [Compound 8]: in data set [1], the RM0 is given as 3.96, the LogPTLC amounted to 5.34 and the “b (slope)” value is given as −0.0539.

As for `CN1c2nc3ccccc3cc2Sc2ccc3ccccc3c21` [Compound 19], in data set [1], the RM0 was 4.18, the LogPTLC came to 5.58 and the “b (slope)” value is listed as −0.0538.

On to `CC(=O)Nc1ccccc1` [Standard I, acetanilide, reference compound], for which, in data set [1], the RM0 was 0.78, the LogPTLC stood at 1.21 and the “-b” value is on record as 0.0162.

In the case of `CN1c2ccc3ncccc3c2Sc2cc3ccccc3nc21` [Compound 6], in data set [1], the RM0 is recorded as 4.24 and the “b (slope)” value is −0.0582.

Consider `c1ccc2nc3c(cc2c1)Sc1ccc2cccnc2c1N3` [Compound 11], for which the lipid peroxidation effect entry in data set [2] is reported as “strong”. In addition, the “free radical scavenging effect” value in data set [3] was “strong”. Also, in data set [1], the RM0 was 3.48, the LogPTLC was determined as 4.72 and the “b (slope)” value is listed as −0.0462. Further, in data set [4], the ion chelating effect result was “strong”. The alpha-glucosidase activity inhibition entry in the data set on alpha-glucosidase is “inhibited”. The alpha-amylase activity inhibition entry in the data set with alpha-amylase is listed as “inhibited”.

On to `c1ccc2nc3c(cc2c1)Sc1ccc2ccccc2c1N3` [Compound 18], for which, in data set [1], the RM0 is 3.81 and the “b (slope)” value was −0.0484.

With `C=CCN1c2cnc3ccccc3c2Sc2cc3ccccc3nc21` [Compound 3], in data set [1], the RM0 is recorded as 4.30 and the “b (slope)” value is −0.058.

As to `C=CCN1c2nc3ccccc3cc2Sc2ccc3cccnc3c21` [Compound 13], in data set [1], the “b (slope)” value was −0.0478.

On to `C#CCN1c2ccc3ccccc3c2Sc2cc3ccccc3nc21` [Compound 17], for which, in data set [1], the RM0 was 4.29, the LogPTLC is 5.76 and the “b (slope)” value is listed as −0.0529.

Turning to `c1ccc2nc3c(cc2c1)Sc1ccc2ncccc2c1N3` [Compound 9], in data set [2], the lipid peroxidation effect result is “strong”. For the same compound, the “free radical scavenging effect” value in data set [3] is listed as “strong”. In addition, in data set [1], the RM0 is 3.69 and the “b (slope)” value was −0.0498. In addition, in data set [4], the ion chelating effect entry is “strong”. Moreover, the alpha-glucosidase activity inhibition result with alpha-glucosidase is listed as “inhibited”. Besides, in the data set with alpha-amylase, the alpha-amylase activity inhibition entry is reported as “inhibited”.

For the compound `CN1c2cnc3ccccc3c2Sc2cc3ccccc3nc21` [Compound 2], in data set [1], the RM0 is on record as 4.14 and the “b (slope)” value is listed as −0.0503.

Regarding “6-chloro-ethylureidoethyldiquinothiazine”, the “activity in in vivo models” value in data set [5] is “suppressive and anti-inflammatory activities”. For the same compound, the “inhibition of IFNβ expression and IFNβ-dependent downstream genes and proteins” value in data set [6] is given as “inhibitory activity”.

In the case of `c1ccc2nc3c(cc2c1)Sc1c(ccc2ccccc12)N3` [Compound 14], in data set [1], the RM0 was 4.24, the LogPTLC came to 5.69 and the “b (slope)” value is listed as −0.0573.

Take `CN1c2nc3ccccc3cc2Sc2ccc3ncccc3c21` [Compound 10]: in data set [1], the RM0 is on record as 4.37 and the “b (slope)” value is −0.0540.

With `CN1c2nc3ccccc3cc2Sc2ccc3cccnc3c21` [Compound 12], in data set [1], the RM0 was 4.21 and the “b (slope)” value is −0.0576.

`C=CCN1c2ccc3ncccc3c2Sc2cc3ccccc3nc21` [Compound 7]: in data set [1], the RM0 is 4.46 and the “b (slope)” value is −0.0534.

In the case of `CN1c2ccc3ccccc3c2Sc2cc3ccccc3nc21` [Compound 15], in data set [1], the RM0 is 4.49 and the “b (slope)” value was −0.0527.

`c1ccc2nc3c(cc2c1)Sc1c(cnc2ccccc12)N3` [Compound 1, 7H-diquino[3,2-b;3′,4′-e]thiazine]: the lipid peroxidation effect result in data set [2] is recorded as “strong”. In addition, the “free radical scavenging effect” value in data set [3] is listed as “strong”. In addition, in data set [1], the RM0 is 3.15 and the “b (slope)” value is on record as −0.0383. Moreover, the ion chelating effect result in data set [4] is listed as “strong”. For the same compound, in the data set with alpha-glucosidase, the alpha-glucosidase activity inhibition entry was “inhibited”. In the data set on alpha-amylase, the alpha-amylase activity inhibition result was “inhibited”.

With `C=CCN1c2nc3ccccc3cc2Sc2ccc3ccccc3c21` [Compound 20, 14-allylquinonaphthothiazine], in data set [1], the RM0 is 4.34 and the “b (slope)” value is −0.0548.
